These results are taken from ChEMBL document CHEMBL1153898, “Indolyl-pyrrolone as a new scaffold for Pim1 inhibitors” (Bioorg Med Chem Lett, 2009).

In test [1] the target is T1, Serine/threonine-protein kinase pim-1 (Homo sapiens, UniProt P11309). The test can be described thus: Inhibition of human recombinant Pim1 expressed in insect cells at 100 uM.
Target sequence in this assay (P11309 whole entry, looked up): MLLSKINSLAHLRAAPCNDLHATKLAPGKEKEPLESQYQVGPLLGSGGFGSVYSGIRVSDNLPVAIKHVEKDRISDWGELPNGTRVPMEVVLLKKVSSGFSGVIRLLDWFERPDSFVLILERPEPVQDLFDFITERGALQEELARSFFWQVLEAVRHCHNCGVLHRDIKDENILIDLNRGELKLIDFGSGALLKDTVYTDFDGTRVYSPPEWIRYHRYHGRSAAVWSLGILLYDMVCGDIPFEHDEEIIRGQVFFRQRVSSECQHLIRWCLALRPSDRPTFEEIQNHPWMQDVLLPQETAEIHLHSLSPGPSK
In test [2] the target is T1, Serine/threonine-protein kinase pim-1. The test can be described thus: Inhibition of recombinant Pim1 by scintillation counter.
Target sequence in this assay (P11309 whole entry, looked up): as above
Test [3] shares this target. The test can be described thus: Inhibition of recombinant Pim1 with increasing concentration of ATP.
Target sequence in this assay (P11309 whole entry, looked up): as above
The target is the same in test [4]. Briefly: Inhibition of human recombinant Pim1 expressed in insect cells by HTRF. Background: Time-resolved FRET reads energy transfer from a long-lived donor to a nearby acceptor.
Target sequence in this assay (P11309 whole entry): as the sequence (P11309 whole entry, looked up) above
Test [5] concerns LNCaP. Briefly: Antiproliferative activity against human LNCAP cells assessed as reduction in cell number after 72 hrs. Type of test: functional, cell-based.
The subject of test [6] is PC-3. The test can be described thus: Antiproliferative activity against human PC3 cells assessed as reduction in cell number after 72 hrs. Type of test: functional, cell-based. Conditions: PC-3, 72 h.
The subject of test [7] is PC-3. The test can be described thus: Cell cycle arrest in human PC3 cells assessed as accumulation at S phase at 10 uM after 72 hrs by cytofluorimetric assay. In kind it is functional.
Test [8] relates to LNCaP. Briefly: Cell cycle arrest in human LNCAP cells assessed as accumulation at G1 phase at 10 uM after 72 hrs by cytofluorimetric assay. In kind it is functional.
Test [9] deals with PC-3. The test can be described thus: Cell cycle arrest in human PC3 cells assessed as accumulation at G2 phase at 10 uM after 72 hrs by cytofluorimetric assay. Type of test: functional.
For test [10], the system named is LNCaP. The test can be described thus: Cell cycle arrest in human LNCAP cells assessed as accumulation at S phase at 10 uM after 72 hrs by cytofluorimetric assay. Type of test: functional.
Test [11] concerns LNCaP. Briefly: Cell cycle arrest in human LNCAP cells assessed as accumulation at G2 phase at 10 uM after 72 hrs by cytofluorimetric assay. Type of test: functional.
Test [12] concerns PC-3. Briefly: Cell cycle arrest in human PC3 cells assessed as accumulation at G1 phase at 10 uM after 72 hrs by cytofluorimetric assay. In kind it is functional.

For orientation: inhibition means the change of the read-out against control, counted positive when it falls. In general, Ki refers to a dissociation constant, usually derived from enzyme kinetics or from competition with a known ligand. Usually IC50 stands for the point on the concentration scale where inhibition reaches its midpoint.

The source made the active and inactive calls. No cut-off for these calls is given here.

Take `CC(=O)C1=C(O)C(=O)N(CCc2c[nH]c3ccccc23)C1c1cccc(O)c1` (stereo unspecified): the inhibition in test [1] was 84%. Further, the ID50 in [2] came to 19 µM. Moreover, in test [3], the outcome was Active.
For `CC(=O)C1=C(O)C(=O)N(CCc2c[nH]c3ccccc23)C1c1ccc(C)cc1` (stereo unspecified), in that order: 54%, 10 µM and “Active”.
For the molecule `CC(=O)C1=C(O)C(=O)N(CCc2c[nH]c3ccccc23)C1c1ccc(O)cc1` (stereo unspecified), in test [1], the inhibition was 92%. The Ki in test [4] is 2.2 µM. The ID50 in test [2] worked out at 5.2 µM. For the same molecule, the outcome in [3] was Active.
Consider `CC(Cc1ccccc1)NC(=O)C(c1ccc(N)cc1)c1ccc(N)cc1` (stereo unspecified), for which the inhibition in test [1] was -7%.
`CCc1ccc(C2C(C(C)=O)=C(O)C(=O)N2CCc2c[nH]c3ccccc23)cc1` (stereo unspecified): the 50% inhibitory concentration (IC50) with LNCaP [5] was 10.6 µM; in the test with PC-3 [6] it was 10.1 µM. In test [1], the inhibition was determined as 79%. Also, the Activity is given as 20.81% with PC-3 [7]; 39.47% in the test with LNCaP [8]; 14.94% in the test on PC-3 [9]; 34.92% with LNCaP [10]; 25.61% in the test with LNCaP [11]; 64.24% in the test on PC-3 [12]. In addition, in [4], the Ki worked out at 2.1 µM. For the same molecule, in [2], the ID50 worked out at 4.5 µM. For the same molecule, the result in test [3] was Active.
`CN(C)CCCn1cc(C2=C(c3cn(C)c4ccccc34)C(=O)NC2=O)c2ccccc21`: the IC50 in [4] came to 150 nM.
As to `CN1C2C=C(N(CCc3c[nH]c4ccccc34)C(=O)c3ccc(Cl)cc3)CCC1CC2` (stereo unspecified), the inhibition in test [1] is 30%. The IC50 in [4] came out at 2100 nM.
With `C/C(=C/c1sc2ccccc2[n+]1CCO)C/C=C1/Sc2ccccc2N1CCO`, the inhibition in [1] was -4%.
For `CCOc1ccc(C2C(C(C)=O)=C(O)C(=O)N2CCc2c[nH]c3ccccc23)cc1` (stereo unspecified), the inhibition in test [1] was found to be 71%. For the same molecule, the Ki in test [4] amounted to 4.2 µM. Moreover, the ID50 in [2] was 12 µM. Moreover, the result in test [3] was Active.
Take `COc1cc(C2C(C(C)=O)=C(O)C(=O)N2CCc2c[nH]c3ccccc23)ccc1O` (stereo unspecified): the inhibition in test [1] turned out to be 90%. Further, the Ki in test [4] was found to be 4.5 µM. The ID50 in [2] amounted to 9.5 µM. In addition, in [3], the outcome was Active.
Consider `COC(=O)c1ccc(C2C(C(C)=O)=C(O)C(=O)N2CCc2c[nH]c3ccccc23)cc1` (stereo unspecified), for which the inhibition in [1] came to 57%. For the same molecule, in test [2], the ID50 came out at 13 µM. Besides, in test [3], the outcome was Active.
Consider `CC(=O)Nc1ccc(-c2csc(-c3c[nH]c4ccccc34)n2)cc1`, for which the inhibition in test [1] worked out at 1%.
With `O/N=C/c1ccccc1OCC(O)Cn1c2ccccc2c2ccccc21` (stereo unspecified), the inhibition in test [1] was 75%. In addition, the IC50 in test [4] is 16000 nM.
